Results taken from the CheMixHub ionic liquid set.

Experiment: xn = mol fraction of the nth substance listed
Details: for viscosity: 101.3 kPa, x2 = 0

CCCCCCCC[n+]1ccccc1.[Br-] + C[C@H](N)C(=O)O + O
100 kPa
Details | electrical conductivity [S/m]
288.15 K, x2 = 0.0008949, x1 = 0.005855 | 1.24
288.15 K, x2 = 0.000895, x1 = 0.005791 | 1.23
288.15 K, x2 = 0.0008952, x1 = 0.005507 | 1.2
288.15 K, x2 = 0.0008955, x1 = 0.005201 | 1.17
288.15 K, x2 = 0.0008958, x1 = 0.004877 | 1.14
288.15 K, x2 = 0.0008961, x1 = 0.004522 | 1.1
288.15 K, x2 = 0.0008965, x1 = 0.004131 | 1.04
288.15 K, x2 = 0.0008969, x1 = 0.003704 | 0.975
288.15 K, x2 = 0.0008973, x1 = 0.003232 | 0.884
288.15 K, x2 = 0.0008977, x1 = 0.002757 | 0.789
288.15 K, x2 = 0.0008982, x1 = 0.002255 | 0.678
288.15 K, x2 = 0.0008984, x1 = 0.001938 | 0.603
288.15 K, x2 = 0.0008988, x1 = 0.001556 | 0.507
288.15 K, x2 = 0.0008991, x1 = 0.001181 | 0.405
288.15 K, x2 = 0.0008995, x1 = 0.0007571 | 0.288
288.15 K, x2 = 0.001794, x1 = 0.002782 | 0.753
288.15 K, x2 = 0.001795, x1 = 0.002177 | 0.623
288.15 K, x2 = 0.001796, x1 = 0.001292 | 0.412
288.15 K, x2 = 0.001796, x1 = 0.001777 | 0.532
288.15 K, x2 = 0.001797, x1 = 0.0008214 | 0.291
293.15 K, x2 = 0.0008949, x1 = 0.005848 | 1.41
293.15 K, x2 = 0.000895, x1 = 0.005786 | 1.4
293.15 K, x2 = 0.0008952, x1 = 0.005501 | 1.37
293.15 K, x2 = 0.0008955, x1 = 0.005196 | 1.33
293.15 K, x2 = 0.0008958, x1 = 0.004871 | 1.29
293.15 K, x2 = 0.0008961, x1 = 0.004517 | 1.25
293.15 K, x2 = 0.0008965, x1 = 0.004128 | 1.18
293.15 K, x2 = 0.0008969, x1 = 0.003703 | 1.1
293.15 K, x2 = 0.0008973, x1 = 0.003228 | 1
293.15 K, x2 = 0.0008977, x1 = 0.002756 | 0.894
293.15 K, x2 = 0.0008982, x1 = 0.002254 | 0.766
293.15 K, x2 = 0.0008984, x1 = 0.001937 | 0.68
293.15 K, x2 = 0.0008988, x1 = 0.001555 | 0.568
293.15 K, x2 = 0.0008991, x1 = 0.001179 | 0.455
293.15 K, x2 = 0.0008995, x1 = 0.0007571 | 0.334
293.15 K, x2 = 0.001794, x1 = 0.00278 | 0.851
293.15 K, x2 = 0.001795, x1 = 0.002175 | 0.705
293.15 K, x2 = 0.001796, x1 = 0.001292 | 0.464
293.15 K, x2 = 0.001796, x1 = 0.001777 | 0.602
293.15 K, x2 = 0.001797, x1 = 0.0008196 | 0.325
298.15 K, x2 = 0.0008949, x1 = 0.005843 | 1.59
298.15 K, x2 = 0.000895, x1 = 0.005779 | 1.58
298.15 K, x2 = 0.0008952, x1 = 0.005494 | 1.54
298.15 K, x2 = 0.0008955, x1 = 0.005188 | 1.5
298.15 K, x2 = 0.0008958, x1 = 0.004866 | 1.45
298.15 K, x2 = 0.0008961, x1 = 0.004511 | 1.4
298.15 K, x2 = 0.0008965, x1 = 0.004122 | 1.32
298.15 K, x2 = 0.0008969, x1 = 0.003697 | 1.24
298.15 K, x2 = 0.0008973, x1 = 0.003225 | 1.12
298.15 K, x2 = 0.0008977, x1 = 0.002752 | 1
298.15 K, x2 = 0.0008982, x1 = 0.002252 | 0.857
298.15 K, x2 = 0.0008984, x1 = 0.001935 | 0.762
298.15 K, x2 = 0.0008988, x1 = 0.001553 | 0.633
298.15 K, x2 = 0.0008991, x1 = 0.001178 | 0.509
298.15 K, x2 = 0.0008995, x1 = 0.0007571 | 0.36
298.15 K, x2 = 0.001794, x1 = 0.002776 | 0.953
298.15 K, x2 = 0.001795, x1 = 0.002171 | 0.788
298.15 K, x2 = 0.001796, x1 = 0.00129 | 0.518
298.15 K, x2 = 0.001796, x1 = 0.001774 | 0.671
298.15 K, x2 = 0.001797, x1 = 0.0008196 | 0.36
303.15 K, x2 = 0.0008949, x1 = 0.005838 | 1.78
303.15 K, x2 = 0.000895, x1 = 0.005773 | 1.77
303.15 K, x2 = 0.0008952, x1 = 0.005489 | 1.73
303.15 K, x2 = 0.0008955, x1 = 0.005185 | 1.68
303.15 K, x2 = 0.0008958, x1 = 0.004861 | 1.62
303.15 K, x2 = 0.0008961, x1 = 0.004508 | 1.56
303.15 K, x2 = 0.0008965, x1 = 0.004119 | 1.48
303.15 K, x2 = 0.0008969, x1 = 0.003694 | 1.38
303.15 K, x2 = 0.0008973, x1 = 0.003221 | 1.25
303.15 K, x2 = 0.0008977, x1 = 0.002748 | 1.11
303.15 K, x2 = 0.0008982, x1 = 0.002248 | 0.952
303.15 K, x2 = 0.0008984, x1 = 0.001933 | 0.834
303.15 K, x2 = 0.0008988, x1 = 0.001553 | 0.687
303.15 K, x2 = 0.0008991, x1 = 0.001178 | 0.563
303.15 K, x2 = 0.0008995, x1 = 0.0007553 | 0.418
303.15 K, x2 = 0.001794, x1 = 0.002774 | 1.06
303.15 K, x2 = 0.001795, x1 = 0.002169 | 0.875
303.15 K, x2 = 0.001796, x1 = 0.001289 | 0.574
303.15 K, x2 = 0.001796, x1 = 0.001774 | 0.741
303.15 K, x2 = 0.001797, x1 = 0.0008196 | 0.4
308.15 K, x2 = 0.000895, x1 = 0.005759 | 2.02
308.15 K, x2 = 0.000895, x1 = 0.005823 | 2.04
308.15 K, x2 = 0.0008953, x1 = 0.005478 | 1.95
308.15 K, x2 = 0.0008955, x1 = 0.005172 | 1.88
308.15 K, x2 = 0.0008958, x1 = 0.00485 | 1.8
308.15 K, x2 = 0.0008961, x1 = 0.004497 | 1.72
308.15 K, x2 = 0.0008965, x1 = 0.00411 | 1.63
308.15 K, x2 = 0.0008969, x1 = 0.003686 | 1.51
308.15 K, x2 = 0.0008973, x1 = 0.003214 | 1.36
308.15 K, x2 = 0.0008977, x1 = 0.002743 | 1.2
308.15 K, x2 = 0.0008982, x1 = 0.002245 | 1.02
308.15 K, x2 = 0.0008984, x1 = 0.001928 | 0.908
308.15 K, x2 = 0.0008988, x1 = 0.001549 | 0.78
308.15 K, x2 = 0.0008991, x1 = 0.001174 | 0.643
308.15 K, x2 = 0.0008995, x1 = 0.0007535 | 0.488
308.15 K, x2 = 0.001794, x1 = 0.002767 | 1.15
308.15 K, x2 = 0.001795, x1 = 0.002166 | 0.937
308.15 K, x2 = 0.001796, x1 = 0.001287 | 0.631
308.15 K, x2 = 0.001796, x1 = 0.001768 | 0.805
308.15 K, x2 = 0.001797, x1 = 0.0008178 | 0.46

CCCCCCCCCCCC[N+]1(C)CCCCC1.O=C([O-])c1ccccc1O + O
electrical conductivity [S/m], 100 kPa
Details | x1 = 3.55e-06 | x1 = 8.89e-06 | x1 = 2.712e-05
298.15 K | 0.00167 | – | 0.0079
328.15 K | – | 0.0063 | –

COC(=O)OC + CC[n+]1ccn(C)c1C.O=S(=O)([N-]S(=O)(=O)C(F)(F)F)C(F)(F)F
Details | viscosity [mPa·s]
288.15 K | 0.668
293.15 K | 0.628
298.15 K | 0.588
303.15 K | 0.553
308.15 K | 0.524
313.15 K | 0.498

CCCC[n+]1ccc(C)cc1.F[B-](F)(F)F + O
298.15 K, 101 kPa
Details | electrical conductivity [S/m]
x1 = 0.0002198 | 0.131
x1 = 0.0004197 | 0.206
x1 = 0.0007725 | 0.357
x1 = 0.001123 | 0.486
x1 = 0.001267 | 0.554
x1 = 0.001481 | 0.638
x1 = 0.00182 | 0.757
x1 = 0.00217 | 0.871
x1 = 0.002506 | 0.979
x1 = 0.002721 | 1.01
x1 = 0.002887 | 1.07
x1 = 0.003188 | 1.19
x1 = 0.003487 | 1.27
x1 = 0.003843 | 1.36
x1 = 0.004144 | 1.44
x1 = 0.004481 | 1.52
